Test results as given in publication PMC11375786, “Induction of Paraptotic Cell Death in Cancer Cells by Triptycene–Peptide Hybrids and the Revised Mechanism of Paraptosis II” (Biochemistry, 2024).
Read-outs that look alike come from different tables or passages of the source.

Assays:
[1] = system: Ca^2+ concentrations in mitochondria and cytosol in A549 cells; test: Rhod-2/AM and Rhod-4/AM emission (mitochondrial and cytosolic Ca2+) in A549 cells; format: cell-based, human; details: 4 10 μM 1 h; celastrol 100 μM 2–6 h
Procedure: (§1) Jurkat, HeLa-S3, and A549 cells (2.0 × 10^5 cells) were preincubated with Rhod-2/AM (final concentration = 5 μM) or Rhod-4/AM (final concentration = 5 μM) in medium under 5% CO2 at 37 °C for 30 min and then treated with 4 (final concentration = 2.5, 5, or 10 μM) for 0, 15, 30, 45, and 60 min. HeLa-S3 and A549 cells were detached by accutase, immediately after which the cells were suspended in 300 μL of cell culture medium and then analyzed on a flow cytometer (FACS Calibur cytometer, Becton), and the data were analyzed using the FlowJo software (FlowJo, LCC).
(§2) Jurkat, HeLa-S3, A549, and IMR90 cells (2.0 × 10^5 cells) were stained with Rhod-2/AM or Rhod-4/AM (final concentration = 5 μM) for 30 min at 37 °C under 5% CO2. The cells were washed with PBS and were treated with 4 (final concentration = 2.5, 5, or 10 μM) in cell culture medium for 30 and 60 min at 37 °C under 5% CO2. To test the effect of celastrol and cisplatin in HeLa-S3 and A549 cells, the cells were incubated with celastrol (final concentration = 100 μM) and cisplatin (final concentration = 100 μM) for 2–6 h. After washing with PBS, the cells were observed via fluorescence microscopy (BZ-X800, Keyence) using a Greiner CELLview Petri dish (35 × 10 mm^2). Emission images were observed using a TRITC filter (excitation 540 nm, emission 605 nm).
(§3) Jurkat, HeLa-S3, A549, and IMR90 cells (8.0 × 10^4 cells) were incubated with CCCP or 2-APB for 1 h and then stained with Rhod-2/AM or Rhod-4/AM (final concentration = 5 μM) for 30 min at 37 °C under 5% CO2. The cells were washed with PBS and were treated with 4 (final concentration = 2.5, 5, or 10 μM) in PBS for 0–60 min at 37 °C in a microplate reader (ARVO, PerkinElmer). Excitation at 540 nm and emission at 590 nm were used for the measurement of Rhod-2/AM and Rhod-4/AM on the microplate reader.

HeLa-S3 cells [2] = test: Costaining of ER and mitochondria (ERTracker Red, MitoTracker Green), confocal microscopy, HeLa-S3 cells; format: cell-based, human; details: 4 5 μM, 5 and 10 min; celastrol 100 μM
Procedure: (§4) Jurkat, HeLa-S3, A549, and IMR90 cells (2.0 × 10^5 cells) were incubated with 4 (final concentration = 2.5 μM (for Jurkat), 5 μM (for HeLa-S3), 10 μM (for A549) and 5 μM and 50 μM (for IMR90)) in cell culture medium at 37 °C under 5% CO2. After incubation, MitoTracker Green (final concentration = 100 nM (for Jurkat) or 500 nM (for HeLa-S3, A549 and IMR90)), or ERTracker Red (final concentration = 500 nM (for Jurkat) or 1 μM (for HeLa-S3, A549 and IMR90)) were applied for 1 h under the same conditions. After washing with PBS, the cells were observed via confocal fluorescence microscopy (FluoView, FV-1000, Olympus). Excitation at 473 nm and emissions from 485 to 585 nm were used for detecting the MitoTracker Green. Excitation at 559 nm and emissions from 570 to 670 nm were used for detecting the ERTracker Red. Exposure time was 20 μs/pixel.

Jurkat cells [3] = format: cell-based; details: 1 h
Procedure: (§5) MTT reagent (5 mg/mL) in PBS (10 μL) was then added to the cells. After incubation at 37 °C for 4 h, a formazan lysis solution (10% sodium dodecyl sulfate (SDS) in 0.01 N HCl) (100 μL) was added and the resultant solution was incubated overnight under the same conditions, which was followed by measurement of the absorbance at 570 nm using a microplate reader (ARVO, PerkinElmer).

[4] = system: labile Fe^2+ in mitochondria of Jurkat cells; test: Mito-FerroGreen fluorescence microscopy in Jurkat cells; format: cell-based; details: 4 2.5 μM 1 h; celastrol 5 μM, etoposide 5 μM, cisplatin 100 μM 24 h
Procedure: (§6) Jurkat cells (2.0 × 10^5 cells) were treated with 4 (2.5 μM), etoposide (5 μM), cisplatin (100 μM) and celastrol (5 μM) and stained with Mito-FerroGreen (a probe for labile Fe^2+ in mitochondria) (5 μM) and zinquin (a probe for intracellular Zn^2+) (25 μM). The cell images were observed via fluorescence microscopy.

IMR90 cells [5] = test: cells
Procedure: (§7) HeLa S3 cells (human cervical carcinoma) were cultured in Minimum essential medium (MEM) containing 10% FBS, penicillin, and streptomycin. A549 cells (human lung carcinoma) and IMR90 cells (human fetal lung fibroblast) were cultured in Dulbecco’s modified Eagle’s medium (DMEM) with 10% FBS, penicillin, and streptomycin. All cells were cultured at 37 °C under a humidified atmosphere containing 5% CO2.
as §5, with “Jurkat, HeLa-S3, A549 cells (2.0 × 10^5 cells/mL) and IMR90 cells (1.0 × 10^5 cells/mL) were incubated in the presence of 3–7 for 1 h, and etoposide, cisplatin and celastrol for 24 h (50 μL) in cell culture medium under CO2 at 37 °C in 96-well plates (BD Falcon). MTT” for “MTT”

A549 cells [6] = test: cells; details: 1 h
Procedure: as §7
as §5, with “Jurkat, HeLa-S3, A549 cells (2.0 × 10^5 cells/mL) and IMR90 cells (1.0 × 10^5 cells/mL) were incubated in the presence of 3–7 for 1 h, and etoposide, cisplatin and celastrol for 24 h (50 μL) in cell culture medium under CO2 at 37 °C in 96-well plates (BD Falcon). MTT” for “MTT”

Jurkat cells [7] = test: cells; details: 1 h
Procedure: as §7
as §5, with “Jurkat, HeLa-S3, A549 cells (2.0 × 10^5 cells/mL) and IMR90 cells (1.0 × 10^5 cells/mL) were incubated in the presence of 3–7 for 1 h, and etoposide, cisplatin and celastrol for 24 h (50 μL) in cell culture medium under CO2 at 37 °C in 96-well plates (BD Falcon). MTT” for “MTT”

HeLa-S3 cells [8] = test: cells; details: 1 h
Procedure: as §7
as §5, with “Jurkat, HeLa-S3, A549 cells (2.0 × 10^5 cells/mL) and IMR90 cells (1.0 × 10^5 cells/mL) were incubated in the presence of 3–7 for 1 h, and etoposide, cisplatin and celastrol for 24 h (50 μL) in cell culture medium under CO2 at 37 °C in 96-well plates (BD Falcon). MTT” for “MTT”

[9] = system: Ca^2+ concentrations in mitochondria and cytosol in Jurkat cells; test: Rhod-2/AM and Rhod-4/AM emission (mitochondrial and cytosolic Ca2+) in Jurkat cells; format: cell-based; details: 4 2.5 μM, 0–60 min
Procedure: as §1
Jurkat, HeLa-S3, A549, and IMR90 cells (2.0 × 10^5 cells) were stained with Rhod-2/AM or Rhod-4/AM (final concentration = 5 μM) for 30 min at 37 °C under 5% CO2. […] After washing with PBS, the cells were observed via fluorescence microscopy (BZ-X800, Keyence) using a Greiner CELLview Petri dish (35 × 10 mm^2). […]
as §3

[10] = system: Ca^2+ concentrations in mitochondria and cytosol in HeLa-S3 cells; test: Rhod-2/AM and Rhod-4/AM emission (mitochondrial and cytosolic Ca2+) in HeLa-S3 cells; format: cell-based, human; details: 4 5 μM 1 h
Procedure: as §1, §2, §3

Jurkat cells [11] = test: Costaining of ER and mitochondria (ERTracker Red, MitoTracker Green), confocal microscopy, Jurkat cells; format: cell-based; details: 4 2.5 μM, 15 min
Procedure: as §4

[12] = system: intracellular Zn^2+ in Jurkat cells; test: Zinquin fluorescence microscopy in Jurkat cells; format: cell-based; details: 4 2.5 μM 1 h; celastrol 5 μM, etoposide 5 μM, cisplatin 100 μM 24 h
Procedure: as §6

A549 cells [13] = test: Costaining of ER and mitochondria (ERTracker Red, MitoTracker Green), confocal microscopy, A549 cells; format: cell-based, human; details: 4 10 μM, 15 min; celastrol 100 μM
Procedure: as §4

IMR90 cells [14] = test: Costaining of ER and mitochondria (ERTracker Red, MitoTracker Green), confocal microscopy, IMR90 cells; format: cell-based, human; details: 4 5 or 50 μM, 15 or 60 min
Procedure: as §4

[15] = system: Ca^2+ concentrations in mitochondria in IMR90 cells; test: Rhod-2/AM emission (mitochondrial Ca2+) in IMR90 cells; format: cell-based, human; details: 4 5 μM, 0–60 min
Procedure: as §2, §3

SMILES: NCCCC[C@H](NC(=O)[C@H](CCCCN)NC(=O)[C@@H](N)CCCCN)C(=O)N[C@@H](CC1CCCCC1)C(=O)NCC(=O)NCCCCCCCCNC(=O)COc1cccc2c1C1c3c(OCC(=O)NCCCCCCCCNC(=O)CNC(=O)[C@H](CC4CCCCC4)NC(=O)[C@H](CCCCN)NC(=O)[C@H](CCCCN)NC(=O)[C@@H](N)CCCCN)cccc3C2c2cccc(OCC(=O)NCCCCCCCCNC(=O)CNC(=O)[C@H](CC3CCCCC3)NC(=O)[C@H](CCCCN)NC(=O)[C@H](CCCCN)NC(=O)[C@@H](N)CCCCN)c21 [compound 4]
- Emission of Rhod-2/AM (mitochondrial Ca2+) in A549 cells [1]: enhancement of the red emission
- Emission of Rhod-4/AM (cytosolic Ca2+) in A549 cells [1]: negligible enhancement
- Overlap of emission from MitoTracker Green and ERTracker Red in HeLa-S3 cells (HeLa-S3 cells [2]): considerable overlap
- EC50 (Jurkat cells [3]): 1800 nM
- Emission from Mito-FerroGreen (free Fe2+ in mitochondria) in Jurkat cells [4]: negligibly enhanced
- EC50 (IMR90 cells [5]; 1 h): > 12500 nM
- EC50 (IMR90 cells [5]; 5 h): 4400 nM
- EC50 (A549 cells [6]): 2400 ± 100 nM
- EC50 (Jurkat cells [7]): 700 ± 100 nM
- EC50 (HeLa-S3 cells [8]): 1600 ± 100 nM
- Emission of Rhod-4/AM (cytosolic Ca2+) in Jurkat cells [9]: moderate∼weak enhancement
- Emission of Rhod-4/AM (cytosolic Ca2+) in HeLa-S3 cells ([10]; celastrol 100 μM 2–6 h): negligible enhancement
- Emission of Rhod-2/AM (mitochondrial Ca2+) in HeLa-S3 cells ([10]; celastrol or cisplatin 100 μM 2–6 h): enhancement of the red emission
- Overlap of emission from MitoTracker Green and ERTracker Red in Jurkat cells (Jurkat cells [11]): considerable overlap
- Emission from zinquin (intracellular free Zn2+) in Jurkat cells [12]: negligibly enhanced
- Overlap of emission from MitoTracker Green and ERTracker Red in A549 cells (A549 cells [13]): considerable overlap
- Overlap of emission from MitoTracker Green and ERTracker Red in IMR90 cells (IMR90 cells [14]): weak overlap
- Emission of Rhod-2/AM (mitochondrial Ca2+) in IMR90 cells [15]: somewhat slower emission enhancement
